Activity calls are given as the source filed them. The calls are words filed in the database; no cut-off is given here.
Legend:
[1] = molecular target: Heat shock protein HSP 90-alpha (Homo sapiens, UniProt P07900); test: Binding affinity to CM5 sensor chip immobilized human HSP90alpha assessed as dissociation constant by SPR analysis
[2] = molecular target: HSP90/Cyclin-dependent kinase 4 (Mus musculus, UniProt P07901+P11499+P30285); test: HEMTAC activity at HSP90/CDK4 in mouse B16-F10 cells assessed as induction of CDK4 degradation incubated for 24 hrs by Western blot analysis; type: cell-based
[3] = molecular target: HSP90/Cyclin-dependent kinase 6 (Mus musculus, UniProt P07901+P11499+Q64261); test: HEMTAC activity at HSP90/CDK6 in mouse B16-F10 cells assessed as induction of […] degradation incubated for 24 hrs by Western blot analysis; type: cell-based
A549 = test: Cytotoxicity against human A549 cells assessed as inhibition of cell growth incubated for 72 hrs by CCK-8 assay; type: functional, cell-based; details: A549, 72 h
HFF-1 = test: Cytotoxicity against human HFF-1 cells assessed as reduction of cell viability incubated for 72 hrs by CCK-8 assay; type: toxicity, cell-based; details: hff-1, 72 h
B16-F10 [4] = test: Cytotoxicity against mouse B16-F10 cells assessed as inhibition of cell growth incubated for 72 hrs by CCK-8 assay; type: functional, cell-based; details: B16-F10, 72 h
A-375 = test: Cytotoxicity against human A-375 cells assessed as inhibition of cell growth incubated for 72 hrs by CCK-8 assay; type: functional, cell-based; details: A-375, 72 h
HepG2 = test: Cytotoxicity against human HepG2 cells assessed as inhibition of cell growth incubated for 72 hrs by CCK-8 assay; type: functional, cell-based; details: HepG2, 72 h
MDA-MB-231 = test: Cytotoxicity against human MDA-MB-231 cells assessed as inhibition of cell growth incubated for 72 hrs by CCK-8 assay; type: functional, cell-based; details: MDA-MB-231, 72 h
B16-F10 [5] = test: Induction of apoptosis in mouse B16-F10 cells assessed as live cells at 125 nM incubated for 48 hrs by Annexin V-FITC/PI staining based flow cytometry analysis (reference value: 92.85 %); type: functional
B16-F10 [6] = test: Induction of apoptosis in mouse B16-F10 cells assessed as early apoptotic cells at 125 nM incubated for 48 hrs by Annexin V-FITC/PI staining based flow cytometry analysis (reference value: 3.42%); type: functional
B16-F10 [7] = test: Induction of apoptosis in mouse B16-F10 cells assessed as late apoptotic cells at 125 nM incubated for 48 hrs by Annexin V-FITC/PI staining based flow cytometry analysis (reference value: 1.97%); type: functional
B16-F10 [8] = test: Induction of apoptosis in mouse B16-F10 cells assessed as dead cells at 125 nM incubated for 48 hrs by Annexin V-FITC/PI staining based flow cytometry analysis (reference value: 1.75%); type: functional
B16-F10 [9] = test: Induction of apoptosis in mouse B16-F10 cells assessed as live cells at 250 nM incubated for 48 hrs by Annexin V-FITC/PI staining based flow cytometry analysis (reference value: 92.85 %); type: functional
B16-F10 [10] = test: Induction of apoptosis in mouse B16-F10 cells assessed as early apoptotic cells at 250 nM incubated for 48 hrs by Annexin V-FITC/PI staining based flow cytometry analysis (reference value: 3.42%); type: functional
B16-F10 [11] = test: Induction of apoptosis in mouse B16-F10 cells assessed as late apoptotic cells at 250 nM incubated for 48 hrs by Annexin V-FITC/PI staining based flow cytometry analysis (reference value: 1.97%); type: functional
B16-F10 [12] = test: Induction of apoptosis in mouse B16-F10 cells assessed as dead cells at 250 nM incubated for 48 hrs by Annexin V-FITC/PI staining based flow cytometry analysis (reference value: 1.75%); type: functional
B16-F10 [13] = test: Induction of cell cycle arrest in mouse B16-F10 cells assessed as accumulation of cells at G1 phase at 125 nM incubated for 24 hrs by RNase/PI staining based flow cytometry analysis (reference value: 68.89%); type: functional
B16-F10 [14] = test: Induction of cell cycle arrest in mouse B16-F10 cells assessed as accumulation of cells at G2 phase at 125 nM incubated for 24 hrs by RNase/PI staining based flow cytometry analysis (reference value: 16.13%); type: functional
B16-F10 [15] = test: Induction of cell cycle arrest in mouse B16-F10 cells assessed as accumulation of cells at S phase at 125 nM incubated for 24 hrs by RNase/PI staining based flow cytometry analysis (reference value: 12.45%); type: functional
B16-F10 [16] = test: Induction of cell cycle arrest in mouse B16-F10 cells assessed as accumulation of cells at G1 phase at 250 nM incubated for 24 hrs by RNase/PI staining based flow cytometry analysis (reference value: 68.89%); type: functional
B16-F10 [17] = test: Induction of cell cycle arrest in mouse B16-F10 cells assessed as accumulation of cells at G2 phase at 250 nM incubated for 24 hrs by RNase/PI staining based flow cytometry analysis (reference value: 16.13%); type: functional
B16-F10 [18] = test: Induction of cell cycle arrest in mouse B16-F10 cells assessed as accumulation of cells at S phase at 250 nM incubated for 24 hrs by RNase/PI staining based flow cytometry analysis (reference value: 12.45%); type: functional
[19] = Acute toxicity in zebra fish embryos incubated for 72 hrs; set-up: species or system Danio rerio; details: zebrafish
[20] = Toxicity in C57BL/6J mouse implanted with mouse B16-F10 cells at 20 mg/kg, ip administered once daily for 2 weeks and measured every 2 days; type: organism-based; details: in vivo, 336 h
[21] = molecular target: HSP90/Cyclin-dependent kinase 4 (Mus musculus) (UniProt P30285+P07901+P11499); test: HEMTAC activity at HSP90/CDK4 in mouse B16-F10 cells assessed as induction of CDK4 degradation at 0.01 to 1 uM measured after 24 hrs by Western blot analysis; type: cell-based; details: dose 0.01-1 µM
[22] = molecular target: HSP90/Cyclin-dependent kinase 6 (Mus musculus) (UniProt P07901+Q64261+P11499); test: HEMTAC activity at HSP90/CDK6 in mouse B16-F10 cells assessed as induction of […] degradation at 0.01 to 1 uM measured after 24 hrs by Western blot analysis; type: cell-based; details: dose 0.01-1 µM
[23] = molecular target: Protein cereblon/Cyclin-dependent kinase 4 (Mus musculus) (UniProt P30285+Q8C7D2); test: Protac activity at CRBN/CDK4 in mouse B16-F10 cells assessed as induction of CDK4 degradation at 0.05 uM incubated for 24 hrs by Western blot analysis; type: cell-based
Protein cereblon/Cyclin-dependent kinase 4 (Mus musculus), sequence (P30285 whole entry, looked up): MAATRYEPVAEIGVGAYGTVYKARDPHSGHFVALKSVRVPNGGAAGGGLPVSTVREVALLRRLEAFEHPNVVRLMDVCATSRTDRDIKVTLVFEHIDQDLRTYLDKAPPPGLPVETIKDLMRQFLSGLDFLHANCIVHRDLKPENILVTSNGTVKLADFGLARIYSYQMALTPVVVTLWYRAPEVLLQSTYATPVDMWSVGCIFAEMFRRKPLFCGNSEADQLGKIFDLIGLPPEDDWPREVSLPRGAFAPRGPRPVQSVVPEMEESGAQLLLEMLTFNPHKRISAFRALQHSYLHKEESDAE
Protein cereblon/Cyclin-dependent kinase 4 (Mus musculus), sequence (Q8C7D2 whole entry, looked up): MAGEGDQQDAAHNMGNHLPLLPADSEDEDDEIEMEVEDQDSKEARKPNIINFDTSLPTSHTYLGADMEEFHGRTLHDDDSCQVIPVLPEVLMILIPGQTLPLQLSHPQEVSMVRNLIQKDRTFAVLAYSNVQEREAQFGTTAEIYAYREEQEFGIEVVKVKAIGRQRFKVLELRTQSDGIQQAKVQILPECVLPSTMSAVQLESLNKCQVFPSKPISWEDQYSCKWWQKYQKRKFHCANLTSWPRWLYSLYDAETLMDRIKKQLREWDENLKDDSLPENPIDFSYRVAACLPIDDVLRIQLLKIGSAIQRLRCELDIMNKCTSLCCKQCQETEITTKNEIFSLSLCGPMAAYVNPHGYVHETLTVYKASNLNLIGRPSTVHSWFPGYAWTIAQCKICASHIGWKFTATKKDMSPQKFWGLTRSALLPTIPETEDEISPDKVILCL

[24] = molecular target: Protein cereblon/Cyclin-dependent kinase 6 (Mus musculus) (UniProt Q8C7D2+Q64261); test: Protac activity at CRBN/CDK6 in mouse B16-F10 cells assessed as induction of CDK4 degradation at 0.05 uM incubated for 24 hrs by Western blot analysis; type: cell-based

Compound | Kd [1] | EC50 [2] | EC50 [3] | IC50 (A549) | Activity (HFF-1) | IC50 (B16-F10 [4]) | IC50 (A-375) | IC50 (HepG2) | IC50 (MDA-MB-231) | further results
COc1c(C)cnc(Cn2cc(C#CCCn3cc(C(=O)NCCNC(=O)CN4CCN(c5ccc(Nc6ncc7c(C)c(C(C)=O)c(=O)n(C8CCCC8)c7n6)nc5)CC4)nn3)c3c(Cl)nc(N)nc32)c1C | 67.5 nM | 446 nM | 325 nM | > 10000 nM | Non-Toxic | 6820 nM | 7640 nM | > 10000 nM | 3630 nM | 
COc1c(C)cnc(Cn2cc(C#CCCn3cc(C(=O)NCCOCCOCCNC(=O)CN4CCN(c5ccc(Nc6ncc7c(C)c(C(C)=O)c(=O)n(C8CCCC8)c7n6)nc5)CC4)nn3)c3c(Cl)nc(N)nc32)c1C | 18.7 nM | 268 nM | 245 nM | 3550 nM | Non-Toxic | 1000 nM | 1840 nM | 2540 nM | 1140 nM | 
COc1c(C)cnc(Cn2cnc3c(Cl)nc(N)nc32)c1C [BIIB021] |  |  |  | 134 nM | Toxic | 176 nM | 253 nM | 113 nM | 339 nM | Activity (B16-F10 [5]): 78.06%; Activity (B16-F10 [6]): 13.64%; Activity (B16-F10 [7]): 6.27%; Activity (B16-F10 [8]): 2.03%; Activity (B16-F10 [9]): 68.27%; Activity (B16-F10 [10]): 16.92%; Activity (B16-F10 [11]): 12.55%; Activity (B16-F10 [12]): 2.26%; Activity (B16-F10 [13]): 73.13%; Activity (B16-F10 [14]): 14.09%; Activity (B16-F10 [15]): 12.26%; Activity (B16-F10 [16]): 77.76%; Activity (B16-F10 [17]): 18.95%; Activity (B16-F10 [18]): 2.62%; LC50 at 72 h [19]: < 1000 nM; Activity [20]: Non-Toxic
CC(=O)c1c(C)c2cnc(Nc3ccc(N4CCNCC4)cn3)nc2n(C2CCCC2)c1=O [PALBOCICLIB] |  |  |  | > 10000 nM | Non-Toxic | > 10000 nM | > 10000 nM | > 10000 nM | > 10000 nM | Activity (B16-F10 [5]): 86.8%; Activity (B16-F10 [6]): 2.55%; Activity (B16-F10 [7]): 5.31%; Activity (B16-F10 [8]): 5.34%; Activity (B16-F10 [9]): 89.12%; Activity (B16-F10 [10]): 2.53%; Activity (B16-F10 [11]): 5.51%; Activity (B16-F10 [12]): 2.84%; Activity (B16-F10 [13]): 72.84%; Activity (B16-F10 [14]): 13.57%; Activity (B16-F10 [15]): 13.29%; Activity (B16-F10 [16]): 74.4%; Activity (B16-F10 [17]): 15.63%; Activity (B16-F10 [18]): 9.98%; LC50 at 72 h [19]: > 100000 nM
COc1c(C)cnc(Cn2cc(C#CCCNC(=O)CN3CCN(c4ccc(Nc5ncc6c(C)c(C(C)=O)c(=O)n(C7CCCC7)c6n5)nc4)CC3)c3c(Cl)nc(N)nc32)c1C | 8.39 nM | 96 nM | 88 nM | 607 nM | Non-Toxic | 821 nM | 906 nM | 547 nM | > 10000 nM | 
COc1c(C)cnc(Cn2cc(C#CCCn3cc(C(=O)NCCOCCNC(=O)CN4CCN(c5ccc(Nc6ncc7c(C)c(C(C)=O)c(=O)n(C8CCCC8)c7n6)nc5)CC4)nn3)c3c(Cl)nc(N)nc32)c1C | 306 nM | > 500 nM | 478 nM | 8890 nM | Non-Toxic | 7880 nM | 6340 nM | 3760 nM | 1850 nM | 
COc1c(C)cnc(Cn2cc(C#CCCn3cc(CNC(=O)CN4CCN(c5ccc(Nc6ncc7c(C)c(C(C)=O)c(=O)n(C8CCCC8)c7n6)nc5)CC4)nn3)c3c(Cl)nc(NC(C)=O)nc32)c1C |  |  |  |  |  |  |  |  |  | Activity [21]: inactive; Activity [22]: inactive
COc1c(C)cnc(Cn2cc(C#CCCn3cc(C(=O)N4CCN(c5ccc(Nc6ncc7c(C)c(C(C)=O)c(=O)n(C8CCCC8)c7n6)nc5)CC4)nn3)c3c(Cl)nc(N)nc32)c1C | 460 nM | 110 nM | 105 nM | 2440 nM | Non-Toxic | 546 nM | 293 nM | 1710 nM | > 10000 nM | 
CC(=O)c1c(C)c2cnc(Nc3ccc(N4CCN(CCCCNC(=O)COc5cccc6c5C(=O)N(C5CCC(=O)NC5=O)C6=O)CC4)cn3)nc2n(C2CCCC2)c1=O (configuration not stated) |  |  |  |  |  |  |  |  |  | Activity [23]: Active; Activity [24]: Active

— ChEMBL document CHEMBL5316290, “Targeted Protein Degradation Induced by HEMTACs Based on HSP90” (J Med Chem, 2023)
